The values that follow come from patent US11976072B2, “Diacylglycerol kinase modulating compounds” (priority 2021, dated 2024).

One assay concerns the target human DGKα (Homo sapiens, UniProt P23743). The assay is described as follows: DGKα Biochemical Activity Assay (ADP-Glo).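 Further: luminescent detection of ADP produced as DGKα phosphorylates DAG to phosphatidic acid, IC50 from four-parameter nonlinear curve fit.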 Particulars: recombinant DGKα 1 nM, 100 μM ATP, 18:1 DAG/POPS/octylglucoside micelles, 1 hour at 25° C.; geometric mean; read-out: HTBS DGKa 1X ATP KM IC50. (ADP-Glo turns the ADP formed in a reaction into a luminescent signal.)
In assay [1] the test system is Jurkat NFκB-luciferase cells. The assay is described as follows: Jurkat NFκB-Luciferase Assay. The class given is cell-based. Particulars: Homo sapiens; Jurkat NFκB-luciferase cells activated with anti-CD3 antibody (OKT3), 2.5 hrs at 37° C.; geometric mean; read-out: DGK NFKb Luciferase EC50. The gist of the method: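 Jurkat NFκB-luciferase reporter cells at 1 million cells/ml in RPMI with 10% FBS were added to antibody-coated, compound-containing wells. Luciferase activity read by One-Glo Ex luminescence 7 minutes after reagent addition.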

Usually IC50 stands for the concentration that inhibits the measured activity by half. One may read the EC50 as the concentration that produces a half-maximal response.

Sequence of human DGKα (P23743 whole entry): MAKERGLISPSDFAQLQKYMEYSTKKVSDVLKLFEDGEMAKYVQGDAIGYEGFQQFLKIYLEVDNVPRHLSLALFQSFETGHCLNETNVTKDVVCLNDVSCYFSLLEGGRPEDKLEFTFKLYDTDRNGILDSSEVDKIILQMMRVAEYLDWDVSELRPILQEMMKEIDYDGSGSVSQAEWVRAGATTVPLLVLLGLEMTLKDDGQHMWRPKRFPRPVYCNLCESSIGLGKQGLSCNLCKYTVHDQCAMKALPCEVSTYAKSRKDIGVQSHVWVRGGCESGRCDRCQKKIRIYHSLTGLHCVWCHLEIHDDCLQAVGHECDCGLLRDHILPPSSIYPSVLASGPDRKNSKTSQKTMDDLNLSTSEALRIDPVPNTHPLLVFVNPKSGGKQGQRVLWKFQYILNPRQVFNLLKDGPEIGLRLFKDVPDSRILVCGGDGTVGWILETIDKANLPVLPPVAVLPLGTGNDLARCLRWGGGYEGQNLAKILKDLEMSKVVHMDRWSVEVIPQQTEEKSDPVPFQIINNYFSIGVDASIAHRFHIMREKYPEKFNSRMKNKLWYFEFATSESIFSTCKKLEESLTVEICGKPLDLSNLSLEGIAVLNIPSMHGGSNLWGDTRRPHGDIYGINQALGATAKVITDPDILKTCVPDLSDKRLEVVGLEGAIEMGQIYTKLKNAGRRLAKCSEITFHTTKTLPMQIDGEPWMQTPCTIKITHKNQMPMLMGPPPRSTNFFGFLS

For the compound `Cc1nnc2nc(N(CC(F)F)c3ccnc(C#CC4CC4)c3)c3c(F)c(F)ccc3n12` [Example 81, N-(2-(cyclopropylethynyl)pyridin-4-yl)-N-(2,2-difluoroethyl)-6,7-difluoro-1-methyl-[1,2,4]triazolo[4,3-a]quinazolin-5-amine], the 50% inhibitory concentration (IC50) at human DGKα stood at 10.4 nM. The EC50 in assay [1] is 30.7 nM.
`Cc1nnc2nc(N(CC(F)F)c3ccnc(C#CC4CC4)c3)c3c(F)cccc3n12` [Example 82, N-(2-(cyclopropylethynyl)pyridin-4-yl)-N-(2,2-difluoroethyl)-6-fluoro-1-methyl-[1,2,4]triazolo[4,3-a]quinazolin-5-amine]: the concentration for half-maximal inhibition (IC50) at human DGKα worked out at 11.4 nM. For the same compound, in assay [1], the EC50 amounted to 10.5 nM.
In the case of `Cc1nnc2nc(N3CCCc4c(C#CC5(C)CC5)cncc43)c3c(F)c(F)ccc3n12` [Example 83, 6,7-difluoro-1-methyl-5-(5-((1-methylcyclopropyl)ethynyl)-3,4-dihydro-1,7-naphthyridin-1(2H)-yl)-[1,2,4]triazolo[4,3-a]quinazoline], the IC50 on human DGKα turned out to be 8.49 nM. The EC50 in assay [1] worked out at 1.21 nM.
For `Cc1nnc2nc(N(CC(F)F)c3ccnc(C#CC(C)(C)C(F)(F)F)c3)c3c(F)c(F)ccc3n12` [Example 84, N-(2,2-difluoroethyl)-6,7-difluoro-1-methyl-N-(2-(4,4,4-trifluoro-3,3-dimethylbut-1-yn-1-yl)pyridin-4-yl)-[1,2,4]triazolo[4,3-a]quinazolin-5-amine], on human DGKα, the IC50 was determined as 5.06 nM. Further, the concentration for a half-maximal effect (EC50) in assay [1] turned out to be 2.44 nM.
For `Cc1nnc2nc(N3CCCc4c3ccnc4C#CC3(C)CC3)c3c(F)c(F)ccc3n12` [Example 85, 6,7-difluoro-1-methyl-5-(5-((1-methylcyclopropyl)ethynyl)-3,4-dihydro-1,6-naphthyridin-1(2H)-yl)-[1,2,4]triazolo[4,3-a]quinazoline], the concentration for half-maximal inhibition (IC50) on human DGKα is 7.21 nM. For the same compound, in assay [1], the EC50 worked out at 2.24 nM.
Taken in the same sequence, the figures for `Cc1nnc2nc(N(CC(F)F)c3ccnc(C#CC4CC4)c3)c3cc(F)ccc3n12` [Example 87, N-(2-(cyclopropylethynyl)pyridin-4-yl)-N-(2,2-difluoroethyl)-7-fluoro-1-methyl-[1,2,4]triazolo[4,3-a]quinazolin-5-amine] were 3.5 nM and 7.57 nM.
`Cc1nnc2nc(N3CCCc4c(C#CC5(C(F)(F)F)CC5)cncc43)c3c(F)c(F)ccc3n12` [Example 88, 6,7-difluoro-1-methyl-5-(5-((1-(trifluoromethyl)cyclopropyl)ethynyl)-3,4-dihydro-1,7-naphthyridin-1(2H)-yl)-[1,2,4]triazolo[4,3-a]quinazoline]: the 50% inhibitory concentration (IC50) on human DGKα was 10.6 nM. In assay [1], the concentration giving a half-maximal response (EC50) was determined as 1.14 nM.
`Cc1nnc2nc(N(CC(F)F)c3ccnc(C#CC4(C(F)(F)F)CC4)c3F)c3cc(F)ccc3n12` [Example 89]: on human DGKα, the concentration for half-maximal inhibition (IC50) was 5.41 nM. In addition, in assay [1], the 50% effective concentration (EC50) is 4.61 nM.
Take `Cc1nnc2nc(N3CCCc4c(C#CC(C)(C)C(F)(F)F)cncc43)c3c(F)c(F)ccc3n12` [Example 90, 6,7-difluoro-1-methyl-5-(5-(4,4,4-trifluoro-3,3-dimethylbut-1-yn-1-yl)-3,4-dihydro-1,7-naphthyridin-1(2H)-yl)-[1,2,4]triazolo[4,3-a]quinazoline]: the IC50 at human DGKα stood at 29.3 nM. Also, the 50% effective concentration (EC50) in assay [1] was found to be 1.88 nM.
Taken in the same sequence, the figures for `Cc1nnc2nc(N(CC(F)F)c3ccnc(C#CC4(C)CC4)c3)c3c(F)c(F)ccc3n12` [Example 91, N-(2,2-difluoroethyl)-6,7-difluoro-1-methyl-N-(2-((1-methylcyclopropyl)ethynyl)pyridin-4-yl)-[1,2,4]triazolo[4,3-a]quinazolin-5-amine] were 3.43 nM and 3.83 nM.
In the case of `Cc1nnc2nc(N(CC(F)F)c3ccnc(C#CC4(C(F)(F)F)CC4)c3)c3c(F)c(F)ccc3n12` [Example 92, N-(2,2-difluoroethyl)-6,7-difluoro-1-methyl-N-(2-((1-(trifluoromethyl)cyclopropyl)ethynyl)pyridin-4-yl)-[1,2,4]triazolo[4,3-a]quinazolin-5-amine], the IC50 at human DGKα was determined as 13.8 nM. In addition, in assay [1], the EC50 was 5.3 nM.
